Assay results from patent US20220054513A1, “COMBINATION COMPOSITIONS COMPRISING A BETA-LACTAMASE INHIBITOR” (VenatoRx Pharmaceuticals, Inc., priority 2018, published 2022).
Where two headings read alike, the source gives them in different places.

System: β-lactamase expressing E. cloacae
Assay: broth microdilution MIC of cefiderocol +/- Compound 1, E. cloacae strains
Format: cell-based
Conditions: Enterobacter cloacae

CC(C)(O/N=C(\C(=O)N[C@@H]1C(=O)N2C(C(=O)[O-])=C(C[N+]3(CCNC(=O)c4ccc(O)c(O)c4Cl)CCCC3)CS[C@H]12)c1csc(N)n1)C(=O)O [FDC, cefiderocol]
MIC (read-out: Minimum inhibitory concentration (MIC), E. cloacae CDC-93 (KPC), IDM): 0.5 µg/mL | MIC (read-out: Minimum inhibitory concentration (MIC), E. cloacae CDC-93 (KPC), MHBII): 1 µg/mL | MIC (read-out: Minimum inhibitory concentration (MIC), E. cloacae CDC-161 (IMP), IDM): 1 µg/mL | MIC (read-out: Minimum inhibitory concentration (MIC), E. cloacae CDC-161 (IMP), MHBII): 16 µg/mL | MIC (read-out: Minimum inhibitory concentration (MIC), E. cloacae Entb239 (p99 AmpC, KPC-3, CTXM-15, GES-1, IMI-1), IDM): 2 µg/mL | MIC (read-out: Minimum inhibitory concentration (MIC), E. cloacae Entb239 (p99 AmpC, KPC-3, CTXM-15, GES-1, IMI-1), MHBII): 1 µg/mL
